The experiment has as its system Botrytis cinerea. The experiment in a line: Activity against the grey mold Botrytis cinerea in the microtiterplate test. It is filed as cell-based. The conditions noted are these: comparative examples, measured at 405 nm 7 days after inoculation.

The results in this text go back to patent US20180279615A1 (priority 2015, published 2018).

Regarding `Cc1cc(C2=NC(C)(C)C(C)c3ccccc32)cnc1C` (centres unmarked) [I-1, 1-(5,6-dimethyl-3-pyridyl)-3,3,4-trimethyl-4H-isoquinoline], the “Growth (%) at 32 ppm” value turned out to be 0%.

Regarding `Cc1cc(C2=NC(C)(C)Cc3ccccc32)cnc1C`, the “Growth (%) at 32 ppm” value worked out at 51%.
